From PMC6563099, “Novel Thienopyrimidine Derivative, RP-010, Induces β-Catenin Fragmentation and Is Efficacious against Prostate Cancer Cells” (Cancers, 2019)

Legend:
PC-3 [1] = assay: Oxidative stress (H2DCFDA fluorescence), PC-3; type: cell-based; conditions: 1, 2 and 4 µM, 24 h, vs vehicle
Protocol: The compound 2′,7′-dichlorofluorescin (H2DCFDA) was used to detect changes in the oxidative stress status, as previously described in PC-3 and DU145. […] The cells were then washed 3 times with 1× PBS for 5 min each. The level of reactive oxygen species was then measured, based on the fluorescence level of oxidized H2DCFDA dye (excitation at 485 nm and emission at 535 nm), using an EVOS digital fluorescent microscope at 40×.

HCT116 = test system: HCT116; set-up: method as in PMID 28759878; conditions: colon cancer cell line; cited from earlier work
PC-3 [2] = assay: DAPI staining of nuclear changes, PC-3; type: cell-based; conditions: 24 and 48 h
Protocol: The nuclear changes in DU145 and PC-3 cells lines produced by RP-010 (1, 2 and 4 µM) incubation at 24 or 48 h were determined using DAPI staining. The cells were seeded on culture cover glasses in 6-well plates, and allowed to grow overnight. The cells were then incubated with RP-010, for an additional 24 h, at 37 °C. The incubated cells were fixed with 4% paraformaldehyde, followed by permeabilization with 1× PBS/0.3% Triton X-100 for 25 min. Finally, DAPI stain was added, and cells were photographed using the EVOS microscope.

COc1ccc(-c2nc3sc4c(c3c(=O)[nH]2)CCCC4)cc1 [RP10]
Reactive oxygen species (ROS) level (PC-3 [1]): elevated ROS levels
IC50 (HCT116): 600 ± 300 nM
Nuclear morphology (DAPI) (PC-3 [2]; 1 µM): significant increase in multinucleated cells
Nuclear morphology (DAPI) (PC-3 [2]; 2 or 4 μM): apoptosis
